Measured values as given in PubChem BioAssay (NCI).
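Dose response: 5 concentrations. Exposure: 48 h. Format: 96-well plates. Endpoint: linear interpolation; highest concentration if not reached. GI50: concentration for 50% inhibition of growth. The concentration for full growth arrest is given as TGI.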

Key:
Experiment in all cases: NCI tumour cell line growth inhibition, 48 h
U251 CNS = tested on: U251 CNS
SR leukemia = tested on: SR leukemia
MCF7 breast = tested on: MCF7 breast
NCI-H522 lung = tested on: NCI-H522 lung
SNB-19 CNS = tested on: SNB-19 CNS
OVCAR-3 ovarian = tested on: OVCAR-3 ovarian
ACHN renal = tested on: ACHN renal
MALME-3M melanoma = tested on: MALME-3M melanoma
HT29 colon = tested on: HT29 colon
OVCAR-4 ovarian = tested on: OVCAR-4 ovarian
SF-539 CNS = tested on: SF-539 CNS
OVCAR-8 ovarian = tested on: OVCAR-8 ovarian
A549 NSCLC = tested on: A549 NSCLC
786-0 renal = tested on: 786-0 renal
UO-31 renal = tested on: UO-31 renal
MDA-MB-435 = tested on: MDA-MB-435
SF-268 CNS = tested on: SF-268 CNS
UACC-62 melanoma = tested on: UACC-62 melanoma
SNB-75 CNS = tested on: SNB-75 CNS
RPMI-8226 leukemia = tested on: RPMI-8226 leukemia
UACC-257 melanoma = tested on: UACC-257 melanoma
BT-549 breast = tested on: BT-549 breast
PC-3 prostate = tested on: PC-3 prostate
HOP-92 NSCLC = tested on: HOP-92 NSCLC
SK-MEL-28 melanoma = tested on: SK-MEL-28 melanoma
CCRF-CEM leukemia = tested on: CCRF-CEM leukemia
MDA-MB-231 breast = tested on: MDA-MB-231 breast
HCC-2998 colon = tested on: HCC-2998 colon

C=C1C(=O)O[C@H]2[C@H]1CC/C(COC(=O)c1ccccc1)=C\CC[C@@]1(C)O[C@@H]21
GI50 (U251 CNS): 1.67 µM
TGI (U251 CNS): 3.37 µM
GI50 (SR leukemia): 0.35 µM
TGI (SR leukemia): 86.8 µM
GI50 (MCF7 breast): 0.497 µM
TGI (MCF7 breast): 2.04 µM
GI50 (NCI-H522 lung): 1.06 µM
TGI (NCI-H522 lung): 2.79 µM
GI50 (SNB-19 CNS): 2.61 µM
TGI (SNB-19 CNS): 11.6 µM
GI50 (OVCAR-3 ovarian): 0.482 µM
TGI (OVCAR-3 ovarian): 1.74 µM
GI50 (ACHN renal): 1.37 µM
TGI (ACHN renal): 2.86 µM
GI50 (MALME-3M melanoma): 1.82 µM
TGI (MALME-3M melanoma): 3.86 µM
GI50 (HT29 colon): 0.412 µM
TGI (HT29 colon): 2.1 µM
GI50 (OVCAR-4 ovarian): 2.64 µM
TGI (OVCAR-4 ovarian): 9.87 µM
GI50 (SF-539 CNS): 0.662 µM
TGI (SF-539 CNS): 2.1 µM
GI50 (OVCAR-8 ovarian): 2.28 µM
TGI (OVCAR-8 ovarian): 9.28 µM
GI50 (A549 NSCLC): 3.33 µM
TGI (A549 NSCLC): 13 µM
GI50 (786-0 renal): 1.46 µM
TGI (786-0 renal): 3.08 µM
GI50 (UO-31 renal): 1.2 µM
TGI (UO-31 renal): 2.49 µM
GI50 (MDA-MB-435): 1.34 µM
TGI (MDA-MB-435): 3.24 µM
GI50 (SF-268 CNS): 1.56 µM
TGI (SF-268 CNS): 3.47 µM
GI50 (UACC-62 melanoma): 1.44 µM
TGI (UACC-62 melanoma): 3.13 µM
GI50 (SNB-75 CNS): 5.7 µM
TGI (SNB-75 CNS): 18.7 µM
GI50 (RPMI-8226 leukemia): 0.375 µM
TGI (RPMI-8226 leukemia): 2.44 µM
GI50 (UACC-257 melanoma): 1.51 µM
TGI (UACC-257 melanoma): 3.37 µM
GI50 (BT-549 breast): 1.23 µM
TGI (BT-549 breast): 2.94 µM
GI50 (PC-3 prostate): 1.8 µM
TGI (PC-3 prostate): 4.34 µM
GI50 (HOP-92 NSCLC): 0.984 µM
TGI (HOP-92 NSCLC): 2.61 µM
GI50 (SK-MEL-28 melanoma): 1.74 µM
TGI (SK-MEL-28 melanoma): 3.71 µM
GI50 (CCRF-CEM leukemia): 0.281 µM
TGI (CCRF-CEM leukemia): 1.3 µM
GI50 (MDA-MB-231 breast): 1.69 µM
TGI (MDA-MB-231 breast): 4.36 µM
GI50 (HCC-2998 colon): 2.35 µM
TGI (HCC-2998 colon): 4.95 µM
